pIC50: −log10 of the molar value. Read-outs that look alike come from different tables or passages of the source.

Data set [1] concerns HCT-116. As to the kind of experiment: 72-h MTT cytotoxicity assay. The format is cell-based, human. Particulars: for GI50: Homo sapiens, HCT-116, HCT116 cells, 72-h MTT. Here is the method: (§1) MTT cytotoxicity assay. […] Human tumour cell lines were obtained from ECACC (European Collection of Cell Cultures). Standard 72-h MTT (thiazolyl blue; 3-[4,5-dimethylthiazol-2-yl]-2,5-diphenyltetrazolium bromide, 2 mg/ml in phosphate buffered saline) assays were performed. In short: cells were seeded into 96-well plates according to doubling time and incubated overnight at 37° C. Test compounds were made up in DMSO and a ⅓ dilution series prepared in 100 μL cell media, added to cells (in triplicates) and incubated for 72 hr at 37° C. MTT was made up as a stock of 5 mg/mL in cell media and filter-sterilised. Media was removed from cells followed by a wash with 200 μL PBS. MTT solution was then added at 20 μL per well and incubated in the dark at 37° C. for 4 h. MTT solution was removed and cells again washed with 200 μL PBS. MTT dye was solubilised with 200 μL per well of DMSO with agitation. Absorbance was read at 550 nm on an Anthos Labtec Systems plate reader.
In general terms: Tetrazolium dyes change colour on reduction, which living cells bring about.

The test system of data set [2] is MCF-7. In words: 72-h MTT cytotoxicity assay. The format is cell-based, human. Particulars: for GI50: Homo sapiens, MCF7 cells, 72-h MTT. Here is the method:
as §1

Data set [3] deals with A2780. As to the kind of experiment: 72-h MTT cytotoxicity assay. Particulars: read-out: 72-h MTT IC50 (μM), human cell line, ovarian carcinoma. In kind it is cell-based. As for the experimental part: (§2) MTT cytotoxicity assay. The compounds from the examples above were subjected to a standard cellular proliferation assay using the method described previously (Haselsberger, K. et al. Anti Cancer Drugs 1996, 7, (3), 331-8. Loveland, B. E. et al. Biochemistry International 1992, 27, (3), 501-10). Human tumour cell lines were obtained from ECACC (European Collection of Cell Cultures). Standard 72-h MTT (thiazolyl blue; 3-[4,5-dimethylthiazol-2-yl]-2,5-diphenyltetrazolium bromide, 2 mg/ml in phosphate buffered saline) assays were performed. In short: cells were seeded into 96-well plates according to doubling time and incubated overnight at 37° C. Test compounds were made up in DMSO and a ⅓ dilution series prepared in 100 μL cell media, added to cells (in triplicates) and incubated for 72 hr at 37° C. MTT was made up as a stock of 5 mg/mL in cell media and filter-sterilised. Media was removed from cells followed by a wash with 200 μL PBS. MTT solution was then added at 20 μL per well and incubated in the dark at 37° C. for 4 h. MTT solution was removed and cells again washed with 200 μL PBS. MTT dye was solubilised with 200 μL per well of DMSO with agitation. Absorbance was read at 550 nm on an Anthos Labtec Systems plate reader.

In data set [4] the test system is A549. As to the kind of experiment: 72-h MTT cytotoxicity assay. In kind it is cell-based. Particulars: read-out: 72-h MTT IC50 (μM), human cell line, lung. As for the experimental part: as §2
Data set [5] relates to HeLa. As to the kind of experiment: 72-h MTT cytotoxicity assay. The format is cell-based. Particulars: read-out: 72-h MTT IC50 (μM), human cell line, cervix. Here is the method:
as §2

The subject of data set [6] is MDA-MB-231. In words: 72-h MTT cytotoxicity assay. In kind it is cell-based. Particulars: read-out: 72-h MTT IC50 (μM), human cell line, breast. Here is the method:
as §2

Data set [7] relates to Mia-Paca-2. In words: 72-h MTT cytotoxicity assay. In kind it is cell-based. Particulars: read-out: 72-h MTT IC50 (μM), human cell line, pancreatic carcinoma. As for the experimental part: as §2
Data set [8] relates to NCI-H460. In words: 72-h MTT cytotoxicity assay. In kind it is cell-based. Particulars: read-out: 72-h MTT IC50 (μM), human cell line, lung. As for the experimental part: as §2
Data set [9] concerns PANC W1. In words: 72-h MTT cytotoxicity assay. The format is cell-based. Particulars: read-out: 72-h MTT IC50 (μM), human cell line, pancreatic carcinoma. As for the experimental part: as §2
The test system of data set [10] is Human tumour cell lines. As to the kind of experiment: 72-h MTT cytotoxicity assay, human tumour cell lines (panel / mean). The format is cell-based. Particulars: read-out: 72-h MTT IC50 (μM), mean over the nine human cell lines of Table A2. As for the experimental part:
as §2

Data set [11] concerns the target CDK2 (Homo sapiens, UniProt P24941). As to the kind of experiment: Kinase assay (radioactive phosphate incorporation). In kind it is biochemical. Particulars: CDK2-cyclinE; read-out: Kinase inhibition IC50 CDK2-cyclinE. As for the experimental part:
(§3) Kinase assays. […] This was achieved by measurement of incorporation of radioactive phosphate from ATP into appropriate polypeptide substrates. Recombinant protein kinases and kinase complexes were produced or obtained commercially. Assays were performed using 96-well plates and appropriate assay buffers (typically 25 mM β-glycerophosphate, 20 mM MOPS, 5 mM EGTA, 1 mM DTT, 1 mM […], pH 7.4), into which were added 2-4 μg of active enzyme with appropriate substrates. The reactions were initiated by addition of Mg/ATP mix (15 mM MgCl2+100 μM ATP with 30-50 kBq per well of [γ-^32P]-ATP) and mixtures incubated as required at 30° C.; Reactions were stopped on ice, followed by filtration through p81 filterplates or GF/C filterplates (Whatman Polyfiltronics, Kent, UK). After washing 3 times with 75 mM aq orthophosphoric acid, plates were dried, scintillant added and incorporated radioactivity measured in a scintillation counter (TopCount, Packard Instruments, Pangbourne, Berks, UK). Compounds for kinase assay were made up as 10 mM stocks in DMSO and diluted into 10% DMSO in assay buffer.

In data set [12] the target is CDK9 (Homo sapiens, UniProt P50750). As to the kind of experiment: Kinase assay (radioactive phosphate incorporation). In kind it is biochemical. Here is the method: as §3
Chain of CDK9 (P50750 whole entry, species assumed): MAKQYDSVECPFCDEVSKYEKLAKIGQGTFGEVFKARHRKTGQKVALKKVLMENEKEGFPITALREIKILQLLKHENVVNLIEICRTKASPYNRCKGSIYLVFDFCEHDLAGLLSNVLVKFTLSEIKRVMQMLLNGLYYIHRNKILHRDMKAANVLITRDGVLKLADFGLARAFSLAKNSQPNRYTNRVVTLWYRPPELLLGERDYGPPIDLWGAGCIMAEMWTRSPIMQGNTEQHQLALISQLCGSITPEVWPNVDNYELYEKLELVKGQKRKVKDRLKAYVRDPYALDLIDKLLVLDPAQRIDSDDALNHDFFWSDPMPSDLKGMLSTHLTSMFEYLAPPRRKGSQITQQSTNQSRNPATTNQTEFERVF
Chain of CDK9 (O60563 whole entry partner, species assumed): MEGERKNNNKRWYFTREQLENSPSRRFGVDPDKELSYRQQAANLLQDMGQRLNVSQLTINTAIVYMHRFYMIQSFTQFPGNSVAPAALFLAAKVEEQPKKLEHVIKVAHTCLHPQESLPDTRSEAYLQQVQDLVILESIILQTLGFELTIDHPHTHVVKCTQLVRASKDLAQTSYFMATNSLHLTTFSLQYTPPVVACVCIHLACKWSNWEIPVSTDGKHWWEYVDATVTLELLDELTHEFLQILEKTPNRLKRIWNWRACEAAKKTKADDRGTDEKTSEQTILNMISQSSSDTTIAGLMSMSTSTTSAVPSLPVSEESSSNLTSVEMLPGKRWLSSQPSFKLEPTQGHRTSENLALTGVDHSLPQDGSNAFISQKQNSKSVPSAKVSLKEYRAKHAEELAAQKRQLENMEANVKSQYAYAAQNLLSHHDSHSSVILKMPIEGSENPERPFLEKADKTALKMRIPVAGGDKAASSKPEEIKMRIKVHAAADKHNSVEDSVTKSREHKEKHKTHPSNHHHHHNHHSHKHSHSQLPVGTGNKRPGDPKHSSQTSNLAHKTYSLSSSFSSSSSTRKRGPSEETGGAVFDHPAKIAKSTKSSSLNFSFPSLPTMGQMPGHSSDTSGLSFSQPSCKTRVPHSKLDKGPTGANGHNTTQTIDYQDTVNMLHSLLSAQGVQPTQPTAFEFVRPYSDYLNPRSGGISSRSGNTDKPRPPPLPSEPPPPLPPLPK
Data set [13] has as its target CDK7 (Homo sapiens, UniProt P50613). In words: Kinase assay (radioactive phosphate incorporation). In kind it is biochemical. Particulars: CDK7-cyclinH; read-out: Kinase inhibition IC50 CDK7-cyclinH. As for the experimental part: Kinase assays. The compounds from the examples above were investigated for their ability to inhibit the enzymatic activity of various protein kinases using the method as disclosed in Wang, S. et al. J Med Chem 2004, 47, 1662. This was achieved by measurement of incorporation of radioactive phosphate from ATP into appropriate polypeptide substrates. Recombinant protein kinases and kinase complexes were produced or obtained commercially. Assays were performed using 96-well plates and appropriate assay buffers (typically 25 mM β-glycerophosphate, 20 mM MOPS, 5 mM EGTA, 1 mM DTT, 1 mM […], pH 7.4), into which were added 2-4 μg of active enzyme with appropriate substrates. The reactions were initiated by addition of Mg/ATP mix (15 mM MgCl2+100 μM ATP with 30-50 kBq per well of [γ-^32P]-ATP) and mixtures incubated as required at 30° C.; Reactions were stopped on ice, followed by filtration through p81 filterplates or GF/C filterplates (Whatman Polyfiltronics, Kent, UK). After washing 3 times with 75 mM aq orthophosphoric acid, plates were dried, scintillant added and incorporated radioactivity measured in a scintillation counter (TopCount, Packard Instruments, Pangbourne, Berks, UK). Compounds for kinase assay were made up as 10 mM stocks in DMSO and diluted into 10% DMSO in assay buffer.

The nature of data set [14]: 72-h MTT cytotoxicity assay. The format is cell-based. Particulars: human, MRC5 cells. Here is the method:
as §1

Where [15] appears, read: CDK9-cyclinT1, read-out: Kinase inhibition IC50 CDK9-cyclinT1.

Chain of CDK7 (P50613 whole entry, species assumed): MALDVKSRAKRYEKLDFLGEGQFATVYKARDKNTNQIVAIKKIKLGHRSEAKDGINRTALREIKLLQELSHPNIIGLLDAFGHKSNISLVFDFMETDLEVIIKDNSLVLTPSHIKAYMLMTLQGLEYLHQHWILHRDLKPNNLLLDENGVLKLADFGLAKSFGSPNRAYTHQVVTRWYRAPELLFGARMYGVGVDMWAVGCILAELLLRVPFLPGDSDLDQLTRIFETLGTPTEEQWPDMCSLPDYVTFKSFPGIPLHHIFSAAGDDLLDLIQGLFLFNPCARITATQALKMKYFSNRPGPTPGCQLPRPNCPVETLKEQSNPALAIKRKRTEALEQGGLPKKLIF
Chain of CDK7 (P51946 whole entry partner, species assumed): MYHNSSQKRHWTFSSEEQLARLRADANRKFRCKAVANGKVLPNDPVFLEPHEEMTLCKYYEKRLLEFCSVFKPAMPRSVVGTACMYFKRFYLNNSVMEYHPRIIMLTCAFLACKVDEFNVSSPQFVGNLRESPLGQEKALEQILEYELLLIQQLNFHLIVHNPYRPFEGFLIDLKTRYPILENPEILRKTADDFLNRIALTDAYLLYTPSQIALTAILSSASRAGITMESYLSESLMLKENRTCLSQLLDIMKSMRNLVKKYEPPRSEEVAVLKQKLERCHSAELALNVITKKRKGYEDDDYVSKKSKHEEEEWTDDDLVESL

Regarding `CNc1nc(C)c(-c2nc(Nc3ccc(C)c(S(=O)(=O)N4CCOCC4)c3)ncc2C#N)s1` [Example 1.1, 4-(4-Methyl-2-methylamino-thiazol-5-yl)-2-[4-methyl-3-(morpholine-4-sulfonyl)-phenylamino]-pyrimidine-5-carbonitrile], the GI50 in data set [1] and in data set [2] was 60 nM each time. Besides, the IC50 – broadly, the concentration at which inhibition is half-maximal – was determined as 0.06 µM in data set [1] (read-out: 72-h MTT IC50 (μM), human cell line HCT-116 (origin not given, stands under cervix), 72 h); 0.06 µM in data set [2] (MCF7, read-out: 72-h MTT IC50 (μM), human cell line, breast, MCF-7, 72 h); 0.147 µM in data set [3]; 0.534 µM in data set [4]; 0.661 µM in data set [5]; 0.923 µM in [6]. Further, the IC50 in [7] stood at 0.468 µM; in data set [8], 0.681 µM; in data set [9], 0.366 µM; in [10], 0.433 µM. The pIC50 – broadly, −log10 of the IC50, conventionally taken in molar units – in data set [11] was 6.63; in [12] (setting [15]), 7.39; in data set [13], less than 6.00. Further, in [14], the GI50 (as a rule, the concentration at which growth is held to half of that of the control) at 72 h was found to be 3140 nM.

Regarding `CNc1nc(C)c(-c2nc(Nc3ccc(O)cc3)ncc2C#N)s1` [Example 1.2, 2-(4-Hydroxy-phenylamino)-4-(4-methyl-2-methylamino-thiazol-5-yl)-pyrimidine-5-carbonitrile], the GI50 in [1] worked out at 400 nM; in data set [2], 230 nM. Besides, it took 1050 nM to inhibit growth in [14] by half (GI50 at 72 h).

Take `CNc1nc(C)c(-c2nc(Nc3cccc(O)c3)ncc2C#N)s1` [Example 1.3, 2-(3-Hydroxy-phenylamino)-4-(4-methyl-2-methylamino-thiazol-5-yl)-pyrimidine-5-carbonitrile]: the pIC50 in data set [12] is 7.72.

For `CNc1nc(C)c(-c2nc(Nc3cccc(C(=O)N4CCOCC4)c3)ncc2C#N)s1` [Example 1.4], the GI50 in data set [1] was found to be 590 nM; in data set [2], 820 nM. Further, the figures for the pIC50 in [11], in data set [12] (setting [15]) and in data set [13] were 6.83, 7.07 and 5.43, respectively. Besides, in data set [14], the GI50 at 72 h stood at 4430 nM.

Take `CNc1nc(C)c(-c2nc(Nc3cccc(C(=O)N4CCN(C(C)=O)CC4)c3)ncc2C#N)s1` [Example 1.5, 2-(3-(4-Acetylpiperazine-1-carbonyl)phenylamino)-4-(4-methyl-2-(methylamino)-thiazol-5-yl)pyrimidine-5-carbonitrile]: the pIC50 in data set [11] was 7.28; in [12] (setting [15]), 7.48.

In the case of `CNc1nc(C)c(-c2nc(Nc3cccc(C(=O)O)c3)ncc2C#N)s1` [Example 1.6, 3-(5-cyano-4-(4-methyl-2-(methylamino)thiazol-5-yl)pyrimidin-2-ylamino)benzoic acid], the GI50 in data set [1] was 550 nM; in [2], 1870 nM. In data set [14], this compound yielded a GI50 at 72 h greater than 100000 nM.

Consider `CNc1nc(C)c(-c2nc(Nc3ccc(S(N)(=O)=O)cc3)ncc2C#N)s1` [Example 1.8, 4-(5-cyano-4-(4-methyl-2-(methylamino)thiazol-5-yl)pyrimidin-2-ylamino)benzenesulfonamide], for which the GI50 in [1] turned out to be 340 nM; in [2], 1640 nM. Moreover, the GI50 at 72 h in data set [14] amounted to 26000 nM.

Turning to `COc1cccc(-c2nc(Cl)nc(Nc3ccc(O)cc3)n2)c1` [Example 2.1, 4-(4-chloro-6-(3-methoxyphenyl)-1,3,5-triazin-2-ylamino)phenol], the melting point – broadly, the temperature of the solid-liquid transition – was in the range of 93.5 to 94 °C.

Consider `COc1cccc(-c2nc(Cl)nc(Nc3cccc([N+](=O)[O-])c3)n2)c1` [Example 2.2, 4-chloro-6-(3-methoxyphenyl)-N-(3-nitrophenyl)-1,3,5-triazin-2-amine], for which the melting point lay within 196.9 to 197.2 °C.

Compound `COc1cccc(-c2nc(Cl)nc(Nc3cccc(Br)c3)n2)c1` [Example 2.3, N-(3-bromophenyl)-4-chloro-6-(3-methoxyphenyl)-1,3,5-triazin-2-amine] gave a melting point of 141.9 to 142.1 °C.

In the case of `COc1cccc(-c2nc(Cl)nc(Nc3ccc(C)c(S(=O)(=O)N4CCOCC4)c3)n2)c1` [Example 2.4, 4-chloro-6-(3-methoxyphenyl)-N-(4-methyl-3-(morpholinosulfonyl)phenyl)-1,3,5-triazin-2-amine], the concentration for 50% growth inhibition (GI50) in data set [1] was 530 nM; in data set [2], 1580 nM. Further, it took 580 nM to inhibit growth in data set [14] by half (GI50 at 72 h).

On to `COc1cccc(-c2nc(N)nc(Nc3cccc([N+](=O)[O-])c3)n2)c1` [Example 2.6, 6-(3-methoxyphenyl)-N2-(3-nitrophenyl)-1,3,5-triazine-2,4-diamine], for which the values for the GI50 in data set [1] and in [2] were 7090 nM and 7070 nM, respectively. Further, the GI50 at 72 h in data set [14] was 37600 nM.

Turning to `COc1cccc(-c2nc(NO)nc(Nc3cccc([N+](=O)[O-])c3)n2)c1` [Example 2.8, 4-(hydroxyamino)-6-(3-methoxyphenyl)-N-(3-nitrophenyl)-1,3,5-triazin-2-amine], the GI50 in data set [1] came to 3480 nM; in [2], 6420 nM. In addition, in data set [14], the 50% growth inhibitory concentration (GI50) at 72 h came to 4240 nM.

These data come from patent US20110092490A1, “PYRIMIDINES, TRIAZINES AND THEIR USE AS PHARMACEUTICAL AGENTS” (THE UNIVERSITY OF NOTTINGHAM, priority 2008, published 2011).
